Experimental findings from patent US20040009988A1 (priority 2000, published 2004) are described below.

human MTP, sequence (P55157 19-894): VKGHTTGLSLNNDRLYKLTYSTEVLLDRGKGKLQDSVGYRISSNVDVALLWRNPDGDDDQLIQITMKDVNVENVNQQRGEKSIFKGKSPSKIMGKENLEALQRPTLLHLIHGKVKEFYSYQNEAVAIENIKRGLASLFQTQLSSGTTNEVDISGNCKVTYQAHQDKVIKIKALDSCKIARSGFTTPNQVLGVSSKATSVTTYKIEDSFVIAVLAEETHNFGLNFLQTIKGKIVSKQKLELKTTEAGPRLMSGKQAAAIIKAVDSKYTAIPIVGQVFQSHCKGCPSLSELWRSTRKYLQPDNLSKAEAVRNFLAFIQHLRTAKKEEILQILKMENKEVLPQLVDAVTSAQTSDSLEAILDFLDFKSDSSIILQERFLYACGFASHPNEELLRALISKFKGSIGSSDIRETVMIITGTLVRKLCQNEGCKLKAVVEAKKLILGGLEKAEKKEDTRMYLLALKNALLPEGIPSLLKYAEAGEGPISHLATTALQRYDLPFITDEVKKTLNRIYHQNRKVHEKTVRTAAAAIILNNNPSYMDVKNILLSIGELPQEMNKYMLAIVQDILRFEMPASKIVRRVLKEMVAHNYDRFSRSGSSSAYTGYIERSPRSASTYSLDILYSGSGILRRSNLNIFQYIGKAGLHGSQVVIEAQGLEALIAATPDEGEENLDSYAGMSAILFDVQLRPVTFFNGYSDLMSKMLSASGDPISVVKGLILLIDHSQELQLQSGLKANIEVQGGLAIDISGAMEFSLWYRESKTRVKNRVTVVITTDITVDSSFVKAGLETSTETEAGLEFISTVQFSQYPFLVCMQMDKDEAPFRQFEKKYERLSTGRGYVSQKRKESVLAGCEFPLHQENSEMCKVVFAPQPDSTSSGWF
human MTP, sequence (P07237 18-508 partner): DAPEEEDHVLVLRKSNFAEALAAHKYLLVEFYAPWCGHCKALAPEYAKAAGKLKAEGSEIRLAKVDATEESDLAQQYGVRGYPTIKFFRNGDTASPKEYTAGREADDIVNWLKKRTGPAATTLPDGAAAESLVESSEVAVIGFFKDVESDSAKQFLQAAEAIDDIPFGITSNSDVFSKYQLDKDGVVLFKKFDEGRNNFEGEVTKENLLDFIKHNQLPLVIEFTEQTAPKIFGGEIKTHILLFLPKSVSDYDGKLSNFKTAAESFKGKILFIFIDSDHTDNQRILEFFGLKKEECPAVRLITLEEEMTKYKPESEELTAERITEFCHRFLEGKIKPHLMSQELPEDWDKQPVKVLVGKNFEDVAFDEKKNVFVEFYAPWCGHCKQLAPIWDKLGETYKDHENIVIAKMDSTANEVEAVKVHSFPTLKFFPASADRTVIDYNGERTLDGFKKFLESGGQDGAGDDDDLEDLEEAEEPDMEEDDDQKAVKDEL

System in the first data set: not given
Assay: not given
Details: not given
`Cc1cccc(C(=O)Nc2ccc(N3CCN(CC(N)=O)CC3)nc2)c1-c1ccc(C(C)C)cc1` [Example 1, 4′-Isopropyl-6-methyl-biphenyl-2-carboxylic acid [2-(4-carbamoylmethyl-piperazin-1-yl)-pyridin-5-yl]-amide] had a melting point of 200 to 202 °C.
Compound `Cc1cccc(C(=O)Nc2ccc(N3CCN(CC(N)=O)CC3)nc2)c1-c1ccc(C(F)(F)F)cc1` [Example 2, 6-Methyl-4′-trifluoromethyl-biphenyl-2-carboxylic acid [2-(4-carbamoylmethyl-piperazin-1-yl)-pyridin-5-yl]-amide] yielded a melting point of 180 to 181 °C.
In the case of `COc1cccc(C(=O)Nc2ccc(N3CCN(CC(N)=O)CC3)nc2)c1-c1ccc(C(C)C)cc1` [Example 3, 4′-Isopropyl-6-methoxy-biphenyl-2-carboxylic acid [2-(4-carbamoylmethyl-piperazin-1-yl)-pyridin-5-yl]-amide], the melting point fell in the range of 210 to 212 °C.
`CC(C)c1ccc(-c2c(C(=O)Nc3ccc(N4CCN(CC(N)=O)CC4)nc3)cccc2C(C)C)cc1` [Example 4, 4′,6-Diisopropyl-biphenyl-2-carboxylic acid [2-(4-carbamoylmethyl-piperazin-1-yl)-pyridin-5-yl]-amide] displayed a melting point of 169 °C.
Compound `Cc1cccc(C(=O)Nc2ccc(N3CCN(Cc4ccc[nH]4)CC3)nc2)c1-c1ccc(C(C)C)cc1` [Example 5, 4′-Isopropyl-6-methyl-biphenyl-2-carboxylic acid [2-(4-(1H-pyrrol-2-ylmethyl)piperazin-1-yl)-pyridin-5-yl]-amide] gave a melting point of 130 °C.
Consider `Cc1cccc(C(=O)Nc2ccc(N3CCN(Cc4ccc[nH]4)CC3)nc2)c1-c1ccc(C(F)(F)F)cc1` [Example 6, 6-Methyl4′-trifluoromethyl-biphenyl-2-carboxylic acid [2-(4-(1H-pyrrol-2-ylmethyl)piperazin-1-yl)-pyridin-5-yl]-amide], for which the melting point was in the range of 142 to 144 °C.
Regarding `COc1cccc(C(=O)Nc2ccc(N3CCN(Cc4ccc[nH]4)CC3)nc2)c1-c1ccc(C(C)C)cc1` [Example 7, 4′-Isopropyl-6-methoxy-biphenyl-2-carboxylic acid [2-(4-(1H-pyrrol-2-ylmethyl)piperazin-1-yl)-pyridin-5-yl]-amide], the melting point fell in the range of 197 to 199 °C.
`Cc1noc(-c2cccc(CN3CCN(c4ccc(NC(=O)c5ccccc5-c5ccc(C(F)(F)F)cc5)cn4)CC3)c2)n1` [Example 9, 4′-Trifluoromethyl-biphenyl-2-carboxylic acid [2-(4-(3-(3-methyl-[1,2,4]oxadiazol-5-yl)-benzyl)-piperazin-1-yl)-pyridin-5-yl]-amide]: the melting point lay within 192 to 194 °C.
Compound `Cc1noc(-c2cccc(CN3CCN(c4ccc(NC(=O)c5cccc(C)c5-c5ccc(C(C)C)cc5)cn4)CC3)c2)n1` [Example 10, 4′-Isopropyl-6-methyl-biphenyl-2-carboxylic acid [2-(4-(3-(3-methyl-[1,2,4]oxadiazol-5-yl)-benzyl)-piperazin-1-yl)-pyridin-5-yl]-amide] returned a melting point of 150 to 152 °C.
For the compound `COc1cccc(C(=O)Nc2ccc(N3CCN(Cc4cccc(-c5nc(C)no5)c4)CC3)nc2)c1-c1ccc(C(C)C)cc1` [Example 12, 4′-Isopropyl-6-methoxy-biphenyl-2-carboxylic acid [2-(4-(3-(3-methyl-[1,2,4]oxadiazol-5-yl)-benzyl)-piperazin-1-yl)-pyridin-5-yl]-amide], the melting point lay within 136 to 138 °C.
`Cc1noc(-c2cccc(CN3CCN(c4ccc(NC(=O)c5cccc(C(C)C)c5-c5ccc(C(C)C)cc5)cn4)CC3)c2)n1` [Example 13, 4′,6-Diisopropyl-biphenyl-2-carboxylic acid [2-(4-(3-(3-methyl-[1,2,4]oxadiazol-5-yl)-benzyl)-piperazin-1-yl)-pyridin-5-yl]-amide] registered a melting point of 125 °C.
Compound `O=C(Nc1ccc(N2CCN(Cc3ccco3)CC2)nc1)c1ccccc1-c1ccc(C(F)(F)F)cc1` [Example 14, 4′-Trifluoromethyl-biphenyl-2-carboxylic acid [2-(4-(furan-2-ylmethyl)piperazin-1-yl)-pyridin-5-yl]-amide] came in with a melting point of 149 °C.
`CC(C)c1ccc(-c2c(C(=O)Nc3ccc(N4CCN(Cc5cccc(C#N)c5)CC4)nc3)cccc2C(C)C)cc1` [Example 15, 4′,6-Diisopropyl-biphenyl-2-carboxylic acid [2-(4-(3-cyano-benzyl)-piperazin-1-yl)-pyridin-5-yl]-amide]: the melting point was 151 °C.
Regarding `N#Cc1cccc(CN2CCN(c3ccc(NC(=O)c4ccccc4-c4ccc(C(F)(F)F)cc4)cn3)CC2)c1` [Example 17, 4′-Trifluoromethyl-biphenyl-2-carboxylic acid [2-(4-(3-cyano-benzyl)-piperazin-1-yl)-pyridin-5-yl]-amide], the melting point is 168 °C.
`COc1cccc(C(=O)Nc2ccc(N3CCN(Cc4cccc(C#N)c4)CC3)nc2)c1-c1ccc(C(C)C)cc1` [Example 18, 4′-Isopropyl-6-methoxy-biphenyl-2-carboxylic acid [2-(4-(3-cyano-benzyl)-piperazin-1-yl)-pyridin-5-yl]-amide] displayed a melting point of 194 to 196 °C.
`Cc1cccc(C(=O)Nc2ccc(N3CCN(Cc4cccc(C#N)c4)CC3)nc2)c1-c1ccc(C(C)C)cc1` [Example 19, 4′-Isopropyl-6-methyl-biphenyl-2-carboxylic acid [2-(4-(3-cyano-benzyl)-piperazin-1-yl)-pyridin-5-yl]-amide] had a melting point of 154 to 156 °C.
Take `Cc1cccc(C(=O)Nc2ccc(N3CCN(Cc4cccc(C#N)c4)CC3)nc2)c1-c1ccc(C(F)(F)F)cc1` [Example 20, 6-Methyl-4′-trifluoromethyl-biphenyl-2-carboxylic acid [2-(4-(3-cyano-benzyl)-piperazin-1-yl)-pyridin-5-yl]-amide]: the melting point was 164 to 166 °C.
On to `Cc1ccc(C(=O)Nc2ccc(N3CCN(Cc4cccc(C#N)c4)CC3)nc2)c(-c2ccc(C(C)C)cc2)c1` [Example 21, 4′-Isopropyl-5-methyl-biphenyl-2-carboxylic acid [2-(4-(3-cyano-benzyl)-piperazin-1-yl)-pyridin-5-yl]-amide], for which the melting point was in the range of 161 to 163 °C.
`Cc1ccc(C(=O)Nc2ccc(N3CCN(Cc4cccc(C#N)c4)CC3)nc2)c(-c2ccc(C(F)(F)F)cc2)c1` [Example 22, 5-Methyl-4′-trifluoromethyl-biphenyl-2-carboxylic acid [2-(4-(3-cyano-benzyl)-piperazin-1-yl)-pyridin-5-yl]-amide] came in with a melting point of 158 to 160 °C.
Turning to `CCCN1CCN(c2ccc(NC(=O)c3cccc(C(C)C)c3-c3ccc(C(C)C)cc3)cn2)CC1` [Example 23, 4′,6-Diisopropyl-biphenyl-2-carboxylic acid-[2-(4-propyl-piperazin-1-yl)-pyridin-5-yl]-amide], the melting point lay within 126 to 128 °C.
The same measure, in the same setting: the result for `CC(C)c1ccc(-c2c(C(=O)Nc3ccc(N4CCN(C)CC4)nc3)cccc2C(C)C)cc1` [Example 24, 4′,6-Diisopropyl-biphenyl-2-carboxylic acid-[2-(4-methyl-piperazin-1-yl)-pyridin-5-yl]-amide] reads 152 to 154 °C; that for `C=C(C)N1CCN(c2ccc(NC(=O)c3cccc(C(C)C)c3-c3ccc(C(C)C)cc3)cn2)CC1` [Example 25, 4′,6-Diisopropyl-biphenyl-2-carboxylic acid-[2-(4-(propen-2-yl)-piperazin-1-yl)-pyridin-5-yl]-amide], 124 °C.
On the same count and under the same terms, next, `CC(C)c1ccc(-c2c(C(=O)Nc3ccc(N4CCN(C(C)C)CC4)nc3)cccc2C(C)C)cc1` [Example 26, 4′,6-Diisopropyl-biphenyl-2-carboxylic acid-[2-(4-(isopropyl)-piperazin-1-yl)-pyridin-5-yl]-amide]: 136 °C.

For the next data set, the target named is human MTP (Homo sapiens, UniProt P55157). The data set can be described thus: human MTP activity assay (SPA, 3H-triolein transfer between liposomes). It counts as biochemical. To be noted: MTP-mediated 3H-triolein transfer from donor to acceptor liposomes, 25 min at 37° C., streptavidin-SPA beads. The procedure:
The ability of the compounds of this invention to inhibit human MTP activity is measured by an in vitro assay where MTP tranfers 3H-triolein between phosphatidylcholine liposomes. The specificity of the compounds of the invention is established by comparing the effects on apoB-100 and apoprotein A-1 production. A specificity of at least 100 is preferred.
The human MTP activity assay was established using SPA technology. Donor liposomes were prepared with 3H-triolein and phosphatidylcholine, while acceptor liposomes contained biotinylated phosphatidylethanolamine and phosphatidylcholine. The MTP-mediated 3H-triolein transfer onto acceptor liposomes was allowed by a 25 min incubation at 37° C., and quantified by the addition of streptavidin-SPA beads.
In turn, `Cc1cccc(C(=O)Nc2ccc(N3CCN(CC(N)=O)CC3)nc2)c1-c1ccc(C(C)C)cc1` [Example 1, 4′-Isopropyl-6-methyl-biphenyl-2-carboxylic acid [2-(4-carbamoylmethyl-piperazin-1-yl)-pyridin-5-yl]-amide] gave an IC50 of 0.3 nM.
Regarding `Cc1cccc(C(=O)Nc2ccc(N3CCN(Cc4ccc[nH]4)CC3)nc2)c1-c1ccc(C(C)C)cc1` [Example 5, 4′-Isopropyl-6-methyl-biphenyl-2-carboxylic acid [2-(4-(1H-pyrrol-2-ylmethyl)piperazin-1-yl)-pyridin-5-yl]-amide], the IC50 was determined as 0.1 nM.
The same measure, in the same setting: next, `CC(C)c1ccc(-c2c(C(=O)Nc3ccc(N4CCN(Cc5cccc(C#N)c5)CC4)nc3)cccc2C(C)C)cc1` [Example 15, 4′,6-Diisopropyl-biphenyl-2-carboxylic acid [2-(4-(3-cyano-benzyl)-piperazin-1-yl)-pyridin-5-yl]-amide]: 0.16 nM; `C=CCN1CCN(c2ccc(NC(=O)c3cccc(C(C)C)c3-c3ccc(C(C)C)cc3)cn2)CC1` [Example 25]: less than 0.1 nM.

The melting point is the temperature of the solid-liquid transition. The term IC50 denotes the concentration needed to halve the response being measured. The low end stands for greater potency in that assay, the high end for weaker potency in that assay.
